Test results: ChEMBL document CHEMBL3351303, “Discovery of Imigliptin, a Novel Selective DPP-4 Inhibitor for the Treatment of Type 2 Diabetes” (ACS Med Chem Lett, 2014)
≈ marks a conversion by molar mass, not a printed value.

Assays:
Salmonella typhimurium = experiment: Genotoxicity in Salmonella typhimurium at 5000 ug/plate by Ames test; type: toxicity, organism-based; details: salmonella enterica subsp. enterica serovar typhimurium
Mus musculus [1] = experiment: Antidiabetic activity in C57BL/6 mouse assessed as plasma glucose level at 1 mg/kg, po administered as single dose 30 mins before orally glucose challenge by oral glucose tolerance test (reference value: 15.6 mM); type: functional
Cytochrome P450 2C19 = Cytochrome P450 2C19 (Homo sapiens, UniProt P33261); experiment: Inhibition of CYP2C19 (unknown origin); type: ADME
Mus musculus [2] = organism: Mus musculus; experiment: animal or person; details: C57BL/6, Plasma, po, read-out: MED
Mus musculus [3] = experiment: Antidiabetic activity in C57BL/6 mouse assessed as reduction in plasma glucose AUC (0 to 120 mins) at 0.3 mg/kg, po administered as single dose 30 mins before orally glucose challenge by oral glucose tolerance test; type: functional; details: C57BL/6, Plasma
[4] = Cmax in dog at 5 mg/kg, po; type: ADME, organism-based, Canis lupus familiaris; parameters: dose 5 mg/kg, route oral; details: in vivo
[5] = Volume of distribution at steady state in monkey at 5 mg/kg, iv; type: ADME, organism-based, Macaca mulatta; parameters: dose 5 mg/kg, route intravenous; details: rhesus monkey, in vivo, read-out: Vdss
[6] = Protein binding in rat; type: ADME, organism-based; details: in vivo, read-out: PB (converted)
[7] = Half life in dog at 6.25 mg/kg, iv; type: ADME, organism-based, Canis lupus familiaris; parameters: dose 6.25 mg/kg, route intravenous; details: in vivo
[8] = Plasma concentration in C57BL/6 mouse at 0.3 mg/kg, po administered as single dose 30 mins before orally glucose challenge and measured 20 mins post oral glucose challenge; type: ADME, organism-based; parameters: dose 0.3 mg/kg, route oral
[9] = AUClast in dog at 5 mg/kg, po; type: ADME, organism-based, Canis lupus familiaris; parameters: time 0 - last, dose 5 mg/kg, route oral; details: plasma
[10] = Solubility in pH 1.2 solution; type: physicochemical
Mus musculus [11] = experiment: Increase in plasma GLP1 level in C57BL/6 mouse at 0.1 mg/kg, po administered as single dose 30 mins before orally glucose challenge and measured 20 mins post oral glucose challenge by ELISA method (reference value: 4 pM); type: functional
[12] = Cmax in rat at 10 mg/kg, po; type: ADME, organism-based; parameters: dose 10 mg/kg, route oral; details: in vivo
[13] = Half life in monkey at 5 mg/kg, iv; type: ADME, organism-based, Macaca mulatta; parameters: dose 5 mg/kg, route intravenous; details: rhesus monkey, in vivo
Mus musculus [14] = experiment: Inhibition of DPP4 activity in C57BL/6 mouse at 0.1 mg/kg, po administered as single dose 30 mins before orally glucose challenge and measured 20 mins post oral glucose challenge by luminescence assay; type: functional
Cytochrome P450 3A4 = Cytochrome P450 3A4 (Homo sapiens, UniProt P08684); experiment: Inhibition of CYP3A4 (unknown origin); type: ADME
[15] = Permeability from basolateral to apical side in human Caco2 cells; type: ADME, cell-based; details: Caco-2, read-out: permeability
[16] = Volume of distribution at steady state in dog at 6.25 mg/kg, iv; type: ADME, organism-based, Canis lupus familiaris; parameters: dose 6.25 mg/kg, route intravenous; details: in vivo, read-out: Vdss
[17] = Half life in rat at 10 mg/kg, iv; type: ADME, organism-based; parameters: dose 10 mg/kg, route intravenous; details: in vivo
[18] = Clearance in monkey at 5 mg/kg, iv; type: ADME, organism-based, Macaca mulatta; parameters: dose 5 mg/kg, route intravenous; details: rhesus monkey, in vivo
[19] = AUClast in rat at 10 mg/kg, po; type: ADME, organism-based; parameters: time 0 - last, dose 10 mg/kg, route oral; details: plasma
[20] = Plasma concentration in C57BL/6 mouse at 3 mg/kg, po administered as single dose 30 mins before orally glucose challenge and measured 20 mins post oral glucose challenge; type: ADME, organism-based; parameters: dose 3 mg/kg, route oral
Mus musculus [21] = experiment: Increase in plasma GLP1 level in C57BL/6 mouse at 0.3 mg/kg, po administered as single dose 30 mins before orally glucose challenge and measured 20 mins post oral glucose challenge by ELISA method (reference value: 4 pM); type: functional
Canis familiaris = experiment: Cardiotoxicity in conscious dog assessed as induction of QT prolongation up to 20 mg/kg; type: toxicity, organism-based, Canis lupus familiaris; parameters: dose 20 mg/kg; details: in vivo
[22] = Solubility in pH 4.5 solution; type: physicochemical
[23] = AUClast in monkey at 10 mg/kg, po; type: ADME, organism-based, Macaca mulatta; parameters: dose 10 mg/kg, route oral, time 0 - last; details: rhesus monkey, plasma
[24] = Clearance in dog at 6.25 mg/kg, iv; type: ADME, organism-based, Canis lupus familiaris; parameters: dose 6.25 mg/kg, route intravenous; details: in vivo
[25] = Solubility in pH 6.8 solution; type: physicochemical
[26] = Plasma concentration in C57BL/6 mouse at 0.1 mg/kg, po administered as single dose 30 mins before orally glucose challenge and measured 20 mins post oral glucose challenge; type: ADME, organism-based; parameters: dose 0.1 mg/kg, route oral
[27] = Half life in dog at 5 mg/kg, po; type: ADME, organism-based, Canis lupus familiaris; parameters: dose 5 mg/kg, route oral; details: in vivo
[28] = Protein binding in human; type: ADME, organism-based; details: in vivo, read-out: PB (converted)
Mus musculus [29] = experiment: Antidiabetic activity in C57BL/6 mouse assessed as reduction in plasma glucose AUC (0 to 120 mins) at 0.1 mg/kg, po administered as single dose 30 mins before orally glucose challenge by oral glucose tolerance test; type: functional; details: C57BL/6, Plasma
[30] = Permeability from apical to basolateral side in human Caco2 cells; type: ADME, cell-based; details: Caco-2, read-out: permeability
Mus musculus [31] = experiment: Toxicity in db/db mouse assessed as effect on body weight administered with food formulated compound for 28 days; type: organism-based; details: in vivo, po, 672 h
Mus musculus [32] = experiment: Increase in plasma GLP1 level in C57BL/6 mouse at 1 mg/kg, po administered as single dose 30 mins before orally glucose challenge and measured 20 mins post oral glucose challenge by ELISA method (reference value: 4 pM); type: functional
[33] = Half life in monkey at 10 mg/kg, po; type: ADME, organism-based, Macaca mulatta; parameters: dose 10 mg/kg, route oral; details: rhesus monkey, in vivo
[34] = target: Voltage-gated inwardly rectifying potassium channel KCNH2 (Homo sapiens, UniProt Q12809); experiment: Inhibition of human ERG
Mus musculus [35] = experiment: Antidiabetic activity in C57BL/6 mouse assessed as reduction in plasma glucose AUC (0 to 120 mins) at 1 mg/kg, po administered as single dose 30 mins before orally glucose challenge by oral glucose tolerance test; type: functional; details: C57BL/6, Plasma
[36] = Oral bioavailability in rat at 10 mg/kg; type: ADME, organism-based; details: in vivo
Mus musculus [37] = experiment: Inhibition of DPP4 activity in C57BL/6 mouse at 1 mg/kg, po administered as single dose 30 mins before orally glucose challenge and measured 20 mins post oral glucose challenge by luminescence assay; type: functional
[38] = Oral bioavailability in monkey at 10 mg/kg; type: ADME, organism-based, Macaca mulatta; details: rhesus monkey, in vivo
[39] = Toxicity in rat after 28 days; type: organism-based; details: in vivo
[40] = Cmax in monkey at 10 mg/kg, po; type: ADME, organism-based, Macaca mulatta; parameters: dose 10 mg/kg, route oral; details: rhesus monkey, in vivo
[41] = Protein binding in dog; type: ADME, organism-based, Canis lupus familiaris; details: in vivo, read-out: PB (converted)
Mus musculus [42] = experiment: Inhibition of DPP4 activity in C57BL/6 mouse at 0.3 mg/kg, po administered as single dose 30 mins before orally glucose challenge and measured 20 mins post oral glucose challenge by luminescence assay; type: functional
Mus musculus [43] = experiment: Inhibition of DPP4 activity in C57BL/6 mouse at 3 mg/kg, po administered as single dose 30 mins before orally glucose challenge and measured 20 mins post oral glucose challenge by luminescence assay; details: C57BL/6, po, read-out: INH
Mus musculus [44] = experiment: Antidiabetic activity in C57BL/6 mouse assessed as plasma glucose level at 0.3 mg/kg, po administered as single dose 30 mins before orally glucose challenge by oral glucose tolerance test (reference value: 15.6 mM); type: functional
Cytochrome P450 2C9 = Cytochrome P450 2C9 (Homo sapiens, UniProt P11712); experiment: Inhibition of CYP2C9 (unknown origin); type: ADME
[45] = Oral bioavailability in dog at 5 mg/kg; type: ADME, organism-based, Canis lupus familiaris; details: in vivo
Mus musculus [46] = organism: Mus musculus; experiment: animal or person; details: C57BL/6, Plasma, po, read-out: INH
[47] = Half life in rat at 10 mg/kg, po; type: ADME, organism-based; parameters: dose 10 mg/kg, route oral; details: in vivo
Mus musculus [48] = experiment: Antidiabetic activity in C57BL/6 mouse assessed as plasma glucose level at 0.1 mg/kg, po administered as single dose 30 mins before orally glucose challenge by oral glucose tolerance test (reference value: 15.6 mM); type: functional
Cytochrome P450 2D6 = Cytochrome P450 2D6 (Homo sapiens, UniProt P10635); experiment: Inhibition of CYP2D6 (unknown origin); type: ADME
[49] = Plasma concentration in C57BL/6 mouse at 1 mg/kg, po administered as single dose 30 mins before orally glucose challenge and measured 20 mins post oral glucose challenge; type: ADME, organism-based; parameters: dose 1 mg/kg, route oral

Sequence of Cytochrome P450 3A4 (P08684 whole entry): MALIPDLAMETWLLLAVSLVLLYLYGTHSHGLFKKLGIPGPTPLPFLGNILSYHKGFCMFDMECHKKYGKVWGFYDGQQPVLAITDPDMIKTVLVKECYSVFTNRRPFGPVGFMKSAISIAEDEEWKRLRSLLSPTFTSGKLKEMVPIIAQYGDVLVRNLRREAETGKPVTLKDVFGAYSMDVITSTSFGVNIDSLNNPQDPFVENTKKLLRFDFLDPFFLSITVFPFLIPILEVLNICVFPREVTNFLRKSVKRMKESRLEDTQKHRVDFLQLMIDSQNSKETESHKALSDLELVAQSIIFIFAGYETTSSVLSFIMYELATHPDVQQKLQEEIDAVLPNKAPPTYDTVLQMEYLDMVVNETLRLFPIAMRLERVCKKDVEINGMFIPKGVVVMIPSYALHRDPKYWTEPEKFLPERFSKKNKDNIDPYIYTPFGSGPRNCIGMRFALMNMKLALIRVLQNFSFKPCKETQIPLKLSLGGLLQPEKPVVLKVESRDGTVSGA
Sequence of Cytochrome P450 2D6 (P10635 whole entry): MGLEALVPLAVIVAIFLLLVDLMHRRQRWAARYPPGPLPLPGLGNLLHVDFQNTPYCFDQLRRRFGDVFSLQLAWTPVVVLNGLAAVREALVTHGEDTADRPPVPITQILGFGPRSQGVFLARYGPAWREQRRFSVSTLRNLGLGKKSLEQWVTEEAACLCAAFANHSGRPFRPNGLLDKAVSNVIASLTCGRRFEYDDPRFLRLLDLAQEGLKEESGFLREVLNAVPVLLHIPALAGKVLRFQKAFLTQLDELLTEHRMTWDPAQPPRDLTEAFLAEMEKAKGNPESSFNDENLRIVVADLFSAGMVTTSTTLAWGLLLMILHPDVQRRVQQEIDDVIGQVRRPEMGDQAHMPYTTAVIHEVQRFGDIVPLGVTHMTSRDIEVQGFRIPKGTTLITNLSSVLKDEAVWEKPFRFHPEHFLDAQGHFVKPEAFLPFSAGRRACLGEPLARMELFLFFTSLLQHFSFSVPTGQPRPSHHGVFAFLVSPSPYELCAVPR
Sequence of Cytochrome P450 2C9 (P11712 whole entry): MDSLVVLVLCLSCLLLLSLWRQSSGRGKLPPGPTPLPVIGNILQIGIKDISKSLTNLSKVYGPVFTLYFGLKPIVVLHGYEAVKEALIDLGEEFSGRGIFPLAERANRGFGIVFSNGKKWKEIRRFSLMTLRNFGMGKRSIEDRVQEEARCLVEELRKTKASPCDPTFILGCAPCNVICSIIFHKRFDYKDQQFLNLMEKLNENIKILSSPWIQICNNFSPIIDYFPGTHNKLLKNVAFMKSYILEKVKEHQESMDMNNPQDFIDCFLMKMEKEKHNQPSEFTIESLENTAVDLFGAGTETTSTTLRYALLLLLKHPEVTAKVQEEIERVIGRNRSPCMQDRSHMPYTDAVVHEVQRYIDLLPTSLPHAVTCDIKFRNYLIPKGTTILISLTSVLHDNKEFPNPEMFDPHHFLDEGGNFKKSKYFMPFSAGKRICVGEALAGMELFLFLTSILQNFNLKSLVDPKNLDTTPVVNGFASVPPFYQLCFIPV
Sequence of Voltage-gated inwardly rectifying potassium channel KCNH2 (Q12809 whole entry): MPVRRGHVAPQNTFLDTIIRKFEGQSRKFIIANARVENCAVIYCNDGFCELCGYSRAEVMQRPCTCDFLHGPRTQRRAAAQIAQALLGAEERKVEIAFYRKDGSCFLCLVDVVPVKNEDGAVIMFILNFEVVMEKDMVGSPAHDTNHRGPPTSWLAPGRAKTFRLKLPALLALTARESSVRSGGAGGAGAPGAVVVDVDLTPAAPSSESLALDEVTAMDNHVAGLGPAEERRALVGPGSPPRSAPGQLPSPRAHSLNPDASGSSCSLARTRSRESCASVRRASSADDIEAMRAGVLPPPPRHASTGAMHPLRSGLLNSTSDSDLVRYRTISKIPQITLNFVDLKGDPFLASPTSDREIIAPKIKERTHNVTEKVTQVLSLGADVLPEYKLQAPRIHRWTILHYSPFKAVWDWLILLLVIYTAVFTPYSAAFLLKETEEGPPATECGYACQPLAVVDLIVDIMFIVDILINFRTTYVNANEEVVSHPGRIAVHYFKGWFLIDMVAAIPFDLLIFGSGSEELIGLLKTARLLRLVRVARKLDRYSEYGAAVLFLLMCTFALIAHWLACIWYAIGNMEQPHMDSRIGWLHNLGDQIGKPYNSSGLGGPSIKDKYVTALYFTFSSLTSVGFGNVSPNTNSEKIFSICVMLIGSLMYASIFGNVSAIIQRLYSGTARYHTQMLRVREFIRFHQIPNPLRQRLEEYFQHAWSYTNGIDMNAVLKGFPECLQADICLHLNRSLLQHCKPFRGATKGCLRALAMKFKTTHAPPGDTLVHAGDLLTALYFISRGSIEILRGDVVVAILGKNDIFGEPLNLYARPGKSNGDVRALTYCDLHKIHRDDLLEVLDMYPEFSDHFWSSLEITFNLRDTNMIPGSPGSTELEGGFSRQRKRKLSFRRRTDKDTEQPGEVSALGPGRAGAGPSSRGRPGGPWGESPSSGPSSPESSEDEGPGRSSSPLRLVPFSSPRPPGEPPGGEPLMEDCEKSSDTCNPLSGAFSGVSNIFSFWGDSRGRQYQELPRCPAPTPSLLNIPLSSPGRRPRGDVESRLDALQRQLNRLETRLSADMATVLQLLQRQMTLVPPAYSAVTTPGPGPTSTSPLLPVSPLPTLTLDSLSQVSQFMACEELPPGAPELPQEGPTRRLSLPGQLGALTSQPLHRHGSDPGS
Sequence of Cytochrome P450 2C19 (P33261 whole entry): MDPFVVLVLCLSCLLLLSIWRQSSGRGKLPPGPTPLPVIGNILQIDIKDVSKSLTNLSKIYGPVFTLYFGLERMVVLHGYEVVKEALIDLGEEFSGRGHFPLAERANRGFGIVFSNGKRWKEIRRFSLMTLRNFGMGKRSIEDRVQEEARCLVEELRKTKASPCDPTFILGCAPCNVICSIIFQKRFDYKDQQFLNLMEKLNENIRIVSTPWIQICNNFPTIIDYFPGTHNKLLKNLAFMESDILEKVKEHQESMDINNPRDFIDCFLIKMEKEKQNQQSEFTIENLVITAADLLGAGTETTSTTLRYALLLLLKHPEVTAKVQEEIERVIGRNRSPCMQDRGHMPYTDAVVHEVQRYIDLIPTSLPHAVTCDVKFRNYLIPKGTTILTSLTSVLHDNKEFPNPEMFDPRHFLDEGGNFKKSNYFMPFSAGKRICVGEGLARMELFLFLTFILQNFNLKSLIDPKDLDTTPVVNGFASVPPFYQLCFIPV

Cc1cc(N2CCC[C@@H](N)C2)c2c(n1)n(C)c(=O)n2Cc1ccccc1C#N
Activity (Salmonella typhimurium): Non-toxic | Activity (Mus musculus [1]): 11.4 mM | INH (Cytochrome P450 2C19): > 30 µM | minimal effective dose (Mus musculus [2]): 0.3 mg/kg | inhibition in vivo at 0.3 mg/kg (Mus musculus [3]): 40% | Cmax [4]: 1.35 µg/mL | Vd [5]: 2.44 L/kg | fraction unbound [6]: 0.58 | half-life [7]: 1.12 h | concentration at 20 min [8]: 0.0103 µg/mL | AUC(0-t) [9]: 3.63 µg·h/mL | solubility [10]: 560 mg/mL (≈ 1490 mM) | Activity (Mus musculus [11]): 5.7 pM | Cmax [12]: 1.25 µg/mL | half-life [13]: 3.68 h | inhibition in vivo at 0.1 mg/kg (Mus musculus [14]): 23.8% | INH (Cytochrome P450 3A4): > 30 µM | Papp B→A [15]: 280 nm/s | Vd [16]: 2.46 L/kg | half-life [17]: 1.83 h | clearance [18]: 0.67 L/h/kg | AUC(0-t) [19]: 3.98 µg·h/mL | concentration at 20 min [20]: 0.129 µg/mL | Activity (Mus musculus [21]): 5.7 pM | Activity (Canis familiaris): Non-toxic | solubility [22]: 560 mg/mL (≈ 1490 mM) | AUC(0-t) [23]: 12.9 µg·h/mL | clearance [24]: 2.12 L/h/kg | solubility [25]: 551 mg/mL (≈ 1460 mM) | concentration at 20 min [26]: 0.0039 µg/mL | half-life [27]: 1.3 h | fraction unbound [28]: 0.38 | inhibition in vivo at 0.1 mg/kg (Mus musculus [29]): 3% | Papp A→B [30]: 90 nm/s | Activity (Mus musculus [31]): Non-toxic | Activity (Mus musculus [32]): 6.9 pM | half-life [33]: 4.8 h | INH [34]: > 25 µM | inhibition in vivo at 1 mg/kg (Mus musculus [35]): 57% | bioavailability [36]: 97% | inhibition in vivo at 1 mg/kg (Mus musculus [37]): 71.2% | bioavailability [38]: 86% | NOAEL at 672 h [39]: 150 mg/kg | Cmax [40]: 3.03 µg/mL | fraction unbound [41]: 0.26 | inhibition in vivo at 0.3 mg/kg (Mus musculus [42]): 43.8% | inhibition in vivo at 3 mg/kg (Mus musculus [43]): 82.1% | Activity (Mus musculus [44]): 12.4 mM | INH (Cytochrome P450 2C9): > 30 µM | bioavailability [45]: 89% | inhibition in vivo at 3 mg/kg (Mus musculus [46]): 65% | half-life [47]: 2.4 h | Activity (Mus musculus [48]): 14.1 mM | INH (Cytochrome P450 2D6): > 30 µM | concentration at 50 min [49]: 0.0361 µg/mL
